Target: ATP-dependent translocase ABCB1 (Homo sapiens, UniProt P08183)
Test: TP_TRANSPORTER: inhibition of Daunorubicin transport in G185 cells
Format: functional, cell-based
Conditions: mouse

Sequence of ATP-dependent translocase ABCB1 (P08183 whole entry): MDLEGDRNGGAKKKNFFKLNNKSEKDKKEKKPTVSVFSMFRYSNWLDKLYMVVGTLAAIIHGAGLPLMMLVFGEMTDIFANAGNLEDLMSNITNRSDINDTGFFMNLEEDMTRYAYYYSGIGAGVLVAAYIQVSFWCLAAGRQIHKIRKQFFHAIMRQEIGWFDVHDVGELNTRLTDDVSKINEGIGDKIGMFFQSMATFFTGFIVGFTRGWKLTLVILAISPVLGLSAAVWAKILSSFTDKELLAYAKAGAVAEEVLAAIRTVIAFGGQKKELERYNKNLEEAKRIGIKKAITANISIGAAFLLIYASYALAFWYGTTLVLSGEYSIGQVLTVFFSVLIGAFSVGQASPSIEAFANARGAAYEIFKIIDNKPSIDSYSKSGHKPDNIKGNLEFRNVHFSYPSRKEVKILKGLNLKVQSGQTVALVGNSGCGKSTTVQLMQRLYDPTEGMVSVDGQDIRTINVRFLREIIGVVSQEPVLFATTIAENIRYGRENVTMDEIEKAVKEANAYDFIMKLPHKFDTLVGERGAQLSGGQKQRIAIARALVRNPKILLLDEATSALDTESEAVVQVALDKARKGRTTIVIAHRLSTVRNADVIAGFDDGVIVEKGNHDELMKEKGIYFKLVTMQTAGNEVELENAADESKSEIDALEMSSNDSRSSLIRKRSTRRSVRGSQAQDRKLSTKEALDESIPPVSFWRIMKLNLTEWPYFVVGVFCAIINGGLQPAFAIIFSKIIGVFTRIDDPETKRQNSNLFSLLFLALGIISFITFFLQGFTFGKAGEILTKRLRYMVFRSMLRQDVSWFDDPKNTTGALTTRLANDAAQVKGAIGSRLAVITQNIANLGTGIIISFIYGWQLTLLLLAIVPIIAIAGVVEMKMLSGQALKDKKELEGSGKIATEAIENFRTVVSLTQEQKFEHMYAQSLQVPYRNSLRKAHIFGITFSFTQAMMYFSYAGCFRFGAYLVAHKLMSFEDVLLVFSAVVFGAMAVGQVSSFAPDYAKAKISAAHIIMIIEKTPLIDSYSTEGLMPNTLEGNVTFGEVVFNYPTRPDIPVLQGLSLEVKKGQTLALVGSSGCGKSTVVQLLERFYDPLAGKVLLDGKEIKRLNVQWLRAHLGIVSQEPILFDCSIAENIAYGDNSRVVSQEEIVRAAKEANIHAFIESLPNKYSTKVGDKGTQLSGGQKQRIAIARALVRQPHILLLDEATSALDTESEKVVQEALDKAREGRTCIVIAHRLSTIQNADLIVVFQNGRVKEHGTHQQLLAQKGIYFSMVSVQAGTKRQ

OC(Cn1cncn1)(Cn1cncn1)c1ccc(F)cc1F [FLUCONAZOLE]
Activity: is not an inhibitor [-]
